{"source": "patent US10827753B2", "about": "“Compositions and methods for controlling nematodes” (Monsanto Technology LLC, priority 2007, dated 2020)", "key": {"[1]": {"test_system": "Caenorhabditis elegans ced-3(n717) and ced-4(N1162) mutants", "experiment": "Susceptibility of apoptosis-defective C. elegans mutants on NGM agar plates", "format": "in vivo", "details": "10 μg/ml on NGM agar plates"}, "[2]": {"test_system": "caspase-3 in rat hepatoma derived H4IIE cells", "experiment": "Caspase-3 activity (DEVD-AMC) after compound exposure in H4IIE cells", "format": "cell-based", "details": "concentrations up to 300 μM", "experimental": "Caspase 3 cleaves the tetrapeptide between D and AMC, thus releasing the fluorogenic […] AMC. Following the test article exposure to cells in 96-well plates, medium was aspirated from plates and PBS added to each well. Plates were stored at −80° C. to lyse cells and store samples until further analysis. On the day of analysis, plates were removed from freezer and thawed. Caspase buffer with fluorescent substrate was added to each well and incubated at room temperature for one hour. AMC release was measured in a spectrofluorometer at an excitation wavelength of 360 nm and an emission wavelength of 460 nm. Values are expressed as relative fluorescent units (RFU)."}, "[3]": {"test_system": "CD-1/Swiss derived albino mice", "format": "in vivo", "details": "for mortality, signs of gross toxicity and behavioral changes: three female mice, observed up to 14 days"}, "[4]": {"test_system": "sting (Belonolaimus longicaudatus) nematodes", "experiment": "Sting nematode bench top soil assay", "format": "in vivo"}, "[5]": {"test_system": "Meloidogyne incognita", "experiment": "Fall nematicidal field testing on squash microplots", "format": "in vivo", "details": "for control of root galling compared with oxamyl at an equivalent rate: 2 kg/ha", "source_text": "The test site was located at 3511 Highway F in New Melle, Mo., Saint Charles county. The soil was a native prairie/pasture covering silty clay loam soil. Holes were dug using a Bobcat 763 skid loader with a 12-inch auger to a depth of 18 inches. Total volume of each hole was about 1.2 cubic feet. Six cubic yards of topsoil and 9 tons of river sand were purchased from Dardenne Farms Topsoil. Mixing to a ratio of 4 volumes sand to 1 volume soil was accomplished using a trailer-mounted 9 cubic foot concrete mixer. Holes were filled and then re-filled 5 days later after settling. The mixture was 92.5% sand, 2.5% silt, and 5% clay. Organic matter was 0.2% and pH was 6.8.\nTreatments were arranged in a block design with the blocks laid out perpendicular to the primary slope and parallel to secondary slope. There are 7 inoculated controls and 5 non-inoculated controls and the distributions of disease severity appeared independent of location.\nApplication rates are expressed as kg of active material per hectare, and the mg per plot is based on the surface area of the bored and filled holes (0.000008559 Ha). The DC compounds were formulated immediately before application as follows: 1) the amount required to treat all six replicates was dissolved in 300 ml of acetone, 2) for each plot 50 ml of that solution was added to a graduated cylinder with 2 ml of 12.5% Triton X100 and the volume was raised to 500 ml with tap water. The resultant mix is the same as used in the standard greenhouse assays (10% acetone, 0.05%×100). The oxamyl treatments were prepared from Vydate 2 L formulated the same way. The 500 ml was placed in a watering can and the entire volume was evenly sprinkled over the surface of the plot. No runoff occurred and pooling, if any, was short lived. The final drench volume was 0.58 ml/cm^2, compared to 0.2 ml/cm^2 used in our greenhouse, however the microplots are much deeper so the drench volume applied per soil volume treated is roughly the same.\nMeloidogyne incognita eggs were harvested over a two week period and stored at approximately 5° C. until needed. A stock of 5.6 million vermiform eggs was adjusted to 9000/ml in 620 ml. One day after treatment, two holes were made in each plot about 7 cm apart and equidistant from the squash plants. Five ml of egg suspension was pipetted into each hole, which was then sealed and the plot lightly watered. A total of 90,000 vermiform eggs were added to each plot.\nThe first root evaluation was at 28 DAT. The tops were cut off and weighed immediately in the field, and the roots were carefully dug out so as not to disturb the remaining plant."}, "[6]": {"test_system": "Meloidogyne incognita (RKN)", "experiment": "Seed treatment test of root knot nematode on cucumber plants", "format": "in vivo", "details": "20 mg ai/gram seed, cucumber seeds", "experimental": "For a given concentration the chemical is dissolved in 500 ul of acetone and one gram of cucumber seed (RKN test) or soybean seed (SCN test) is added (e.g., 20 mg active ingredient in 500 ul acetone plus 1 gram of seed). The seed solutions are agitated until all seeds were thoroughly covered with the chemical solution. The acetone is then allowed to evaporate by air drying the seeds. The seeds are planted in 2-inch pots containing sandy soil and then the pots are inoculated with 1000 Meloidogyne incognita (RKN) or 1000 Heterodera glycines (SCN) eggs per pot three days after planting. Plants are rated for galling 14 days after egg inoculation for RKN or 28 days after egg inoculation for SCN."}, "[7]": {"test_system": "mice", "details": "cited from earlier work"}}, "note": "Like-named read-outs stand apart in the source and are kept apart here."}
{"smiles": "Cc1cc(Cl)ccc1-c1noc(-c2ccco2)n1", "note": "[compound 5823]", "values": [{"measurement": "difference in susceptibility between wild-type (N2 Bristol) and ced-3 and ced-4 mutants, including time to mortality", "setting": "[1]", "value": "No observable phenotypic difference in susceptibility"}, {"measurement": "induction of caspase-3 (apoptosis marker)", "setting": "[2]", "value": "no induction of caspase-3"}]}
{"smiles": "Brc1ccc(-c2cnc(-c3cccs3)o2)cc1", "note": "[compound 4776]", "values": [{"measurement": "mortality, signs of gross toxicity and behavioral changes", "setting": "[3]; 500 mg/kg oral", "value": "two animals died within three days"}, {"measurement": "oral toxicity", "setting": "[3]; mice, oral, estimate based on the 50 and 500 mg/kg studies", "value": "lower than 500 mg/kg"}, {"measurement": "Number of nematodes recovered from treated soil after 3 days incubation with the compound", "setting": "[4]; 2 kg/ha", "value": 16}, {"measurement": "Number of nematodes recovered from treated soil after 3 days incubation with the compound", "setting": "[4]; 4 kg/ha", "value": 19}, {"measurement": "Number of nematodes recovered from treated soil after 3 days incubation with the compound", "setting": "[4]; 10 kg/ha", "value": 20}, {"measurement": "RG28 = % root galls at 28 days after treatment", "setting": "[5]; 2 kg ai/ha drench, squash", "value": 19.0, "unit": "%"}, {"measurement": "RG43 = % root galls at 43 days after treatment", "setting": "[5]; 2 kg ai/ha drench, squash", "value": 26.8, "unit": "%"}, {"measurement": "control of root galling compared with oxamyl at an equivalent rate", "setting": "[5]; 28 day time point", "value": "statistically better than oxamyl"}, {"measurement": "control of root galling compared with oxamyl at an equivalent rate", "setting": "[5]; 43 day time point", "value": "statistically better than oxamyl"}, {"measurement": "percent control (galling reduction) relative to the control blank treatment", "setting": "[6]", "value": 58, "unit": "%"}]}
{"smiles": "c1ccc(-c2noc(-c3cccs3)n2)cc1", "note": "[compound 1822]", "values": [{"measurement": "mortality, signs of gross toxicity and behavioral changes", "setting": "[3]; 50 mg/kg oral", "value": "all animals survived, gained body weight, and appeared active and healthy"}, {"measurement": "mortality, signs of gross toxicity and behavioral changes", "setting": "[3]; 500 mg/kg oral", "value": "all animals died within three days"}, {"measurement": "induction of caspase-3 (apoptosis marker)", "setting": "[2]", "value": "no induction of caspase-3"}, {"measurement": "percent control (galling reduction) relative to the control blank treatment", "setting": "[6]", "value": 76, "unit": "%"}]}
{"smiles": "CCOP(=O)(NC(C)C)Oc1ccc(SC)c(C)c1", "note": "(stereo not drawn) [Fenamiphos, fenamiphos, reference compound]", "values": [{"measurement": "oral LD50 in mice", "setting": "[7]", "value": 22.7, "unit": "mg/kg"}, {"measurement": "Number of nematodes recovered from treated soil after 3 days incubation with the compound", "setting": "[4]; Other: 11.1 kg fenamiphos as positive control", "value": 20}]}
